Test results published in ChEMBL document CHEMBL2057065, “The 3-Deoxy Analogue of α-GalCer: Disclosing the Role of the 4-Hydroxyl Group for CD1d-Mediated NKT Cell Activation” (ACS Med Chem Lett, 2011).
Active and inactive are the calls of the source.

How the values were obtained:
[1] = species on record: Mus musculus; assay: Immunostimulatory activity in mouse DN32.D3 NKT hybridoma cells assessed as IL-2 production after 16 hrs by ELISA; format: functional
[2] = test system: Splenocyte; assay: Immunostimulatory activity in mouse splenocytes assessed as IFNgamma production at 8 ng/ml after 72 hrs by ELISA; format: functional, cell-based
[3] = test system: Splenocyte; assay: Immunostimulatory activity in mouse splenocytes assessed as IL4 production at 8 ng/ml after 72 hrs by ELISA; format: functional, cell-based

Measured: Activity

CCCCCCCCCCCCCCCCCCCCCCCCCC(=O)N[C@@H](CO[C@H]1O[C@H](CO)[C@H](O)[C@H](O)[C@H]1O)C[C@H](O)CCCCCCCCCCCCCC
active: all assays above

CCCCCCCCCCCCCCCCCCCCCCCCCC(=O)N[C@@H](CO[C@H]1O[C@H](CO)[C@H](O)[C@H](O)[C@H]1O)[C@H](O)CCCCCCCCCCCCCCC
active: all assays above

CCCCCCCCCCCCCCCCCCCCCCCCCC(=O)N[C@@H](CO[C@H]1O[C@H](CO)[C@H](O)[C@H](O)[C@H]1O)[C@H](O)[C@H](O)CCCCCCCCCCCCCC
active: all assays above
